Reference: paper PMC4467398, “Preclinical antitumor activity of ST7612AA1: a new oral thiol-based histone deacetylase (HDAC) inhibitor” (Oncotarget, 2014)

Tested on: DOHH2 and TMD8 DLBCL cells
Assay: Gene expression profiling (HumanHT-12 v4 BeadChip, limma), ST7612AA1 300 nM 8 hrs vs DMSO
Assay type: cell-based, human
[1] = 300 nM, 8 hours, fold change > 1.5, adjusted p-value < 0.005

CC(=O)SCCCCC[C@H](NC(=O)[C@H]1CCC(=O)N1)C(=O)Nc1ccccc1 [ST7612AA1]
log ratio YPEL5 (probe ILMN_1711069) (300 nM 8 hrs vs DMSO): 6.99E-01
log ratio YRDC (ILMN_2061732) (300 nM 8 hrs vs DMSO): -8.81E-01
log ratio ZBTB42 (ILMN_3239445) (300 nM 8 hrs vs DMSO): 6.62E-01
log ratio ZDHHC8 (probe ILMN_1789492) (300 nM 8 hrs vs DMSO): 8.85E-01
log ratio ZFP161 (ILMN_1772522) (300 nM 8 hrs vs DMSO): -5.98E-01
log ratio ZFX (ILMN_1687484) (300 nM 8 hrs vs DMSO): -6.10E-01
log ratio ZMAT3 (ILMN_1654262) (300 nM 8 hrs vs DMSO): 5.95E-01
log ratio ZMYND11 (ILMN_1754234) (300 nM 8 hrs vs DMSO): -1.27E+00
log ratio ZNF385A (ILMN_1786722) (300 nM 8 hrs vs DMSO): 6.67E-01
log ratio ZNF532 (ILMN_1731358) (300 nM 8 hrs vs DMSO): -8.77E-01
log ratio ZNF689 (ILMN_1759008) (300 nM 8 hrs vs DMSO): -8.10E-01
log ratio ZNF692 (ILMN_1800750) (300 nM 8 hrs vs DMSO): -5.98E-01
log ratio ZNF775 (probe ILMN_1691702) (300 nM 8 hrs vs DMSO): 7.39E-01
log ratio ZNF791 (ILMN_1758105) (300 nM 8 hrs vs DMSO): 6.65E-01
log ratio ZNHIT1 (ILMN_1741491) (300 nM 8 hrs vs DMSO): 6.13E-01
log ratio ZNRD1 (ILMN_1692486) (300 nM 8 hrs vs DMSO): -8.14E-01
log ratio ZNRD1 (ILMN_2398587) (300 nM 8 hrs vs DMSO): -8.04E-01
log ratio ZSCAN16 (ILMN_1809566) (300 nM 8 hrs vs DMSO): 6.84E-01
log ratio ZZZ3 (ILMN_1653618) (300 nM 8 hrs vs DMSO): -7.87E-01
log ratio probe ILMN_1862217 (no symbol) (300 nM 8 hrs vs DMSO): 6.82E-01
log ratio probe ILMN_1865056 (no symbol) (300 nM 8 hrs vs DMSO): 5.95E-01
log ratio probe ILMN_1880086 (no symbol) (300 nM 8 hrs vs DMSO): 6.47E-01
log ratio probe ILMN_1886515 (no symbol given) (300 nM 8 hrs vs DMSO): -8.79E-01
number of genes down-regulated [1]: 563 genes
number of genes up-regulated [1]: 674 genes
AveExpr.ST7612 (2000-08-31 ILMN_1776157): 9.23E-01
log ratio (2000-08-31 ILMN_1776157): 9.23E-01
AveExpr.ST7612 (ABHD8 ILMN_1712707): 9.18E-01
log ratio (ABHD8 ILMN_1712707): 9.18E-01
AveExpr.ST7612 (ACBD7 ILMN_1726388): 1.07E+00
log ratio (ACBD7 ILMN_1726388): 1.07E+00
AveExpr.ST7612 (ADRB2 ILMN_1695590): 1.02E+00
log ratio (ADRB2 ILMN_1695590): 1.02E+00
AveExpr.ST7612 (ANG ILMN_1760727): 1.06E+00
log ratio (ANG ILMN_1760727): 1.06E+00
AveExpr.ST7612 (ANKRD13A ILMN_1689908): 1.03E+00
log ratio (ANKRD13A ILMN_1689908): 1.03E+00
AveExpr.ST7612 (ATP6V0D1 ILMN_1795826): 1.00E+00
log ratio (ATP6V0D1 ILMN_1795826): 1.00E+00
AveExpr.ST7612 (ATP6V1A ILMN_1711516): 9.54E-01
log ratio (ATP6V1A ILMN_1711516): 9.54E-01
AveExpr.ST7612 (BAG3 ILMN_1659766): 1.06E+00
log ratio (BAG3 ILMN_1659766): 1.06E+00
AveExpr.ST7612 (BLVRA ILMN_1691436): 1.07E+00
log ratio (BLVRA ILMN_1691436): 1.07E+00
AveExpr.ST7612 (BMP6 ILMN_1747650): 1.06E+00
log ratio (BMP6 ILMN_1747650): 1.06E+00
AveExpr.ST7612 (C9orf95 ILMN_1674650): 9.57E-01
log ratio (C9orf95 ILMN_1674650): 9.57E-01
AveExpr.ST7612 (C16orf93 ILMN_2179726): 9.06E-01
log ratio (C16orf93 ILMN_2179726): 9.06E-01
AveExpr.ST7612 (CA2 ILMN_1662795): 1.03E+00
log ratio (CA2 ILMN_1662795): 1.03E+00
AveExpr.ST7612 (CBLB ILMN_1685580): 9.03E-01
log ratio (CBLB ILMN_1685580): 9.03E-01
AveExpr.ST7612 (CLEC16A ILMN_1781752): 1.06E+00
log ratio (CLEC16A ILMN_1781752): 1.06E+00
AveExpr.ST7612 (CPNE3 ILMN_1773576): 9.17E-01
log ratio (CPNE3 ILMN_1773576): 9.17E-01
AveExpr.ST7612 (CRIP2 ILMN_1694432): 1.09E+00
log ratio (CRIP2 ILMN_1694432): 1.09E+00
AveExpr.ST7612 (DENND5A ILMN_1785356): 1.07E+00
log ratio (DENND5A ILMN_1785356): 1.07E+00
AveExpr.ST7612 (DENND5A ILMN_3245413): 1.02E+00
log ratio (DENND5A ILMN_3245413): 1.02E+00
AveExpr.ST7612 (DNMT3B ILMN_2328972): 1.03E+00
log ratio (DNMT3B ILMN_2328972): 1.03E+00
AveExpr.ST7612 (EFNA1 ILMN_2371055): 1.05E+00
log ratio (EFNA1 ILMN_2371055): 1.05E+00
AveExpr.ST7612 (EXTL2 ILMN_1797950): 1.08E+00
log ratio (EXTL2 ILMN_1797950): 1.08E+00
AveExpr.ST7612 (FAM46C ILMN_1713266): 1.07E+00
log ratio (FAM46C ILMN_1713266): 1.07E+00
AveExpr.ST7612 (FAM89B ILMN_1804117): 1.06E+00
log ratio (FAM89B ILMN_1804117): 1.06E+00
